Data reported in US20230218663A1, “COMPOSITIONS AND METHODS FOR TREATING A SARS-COV-2 INFECTION” (priority 2020, published 2023).
Like-named read-outs stand apart in the source and are kept apart here.

What was measured:
[1] = system: VeroE6 cells; assay: Cell viability assay (CellTiterGlo), VeroE6; type: cell-based, African green monkey
Method: (§1) The CellTiterGlo® luminescent assay (Promega Corporation, Madison, Wis., USA) was performed to detect the cytotoxicity of the selected compounds as previously described^39. Briefly, VeroE6 cells (4×10^4 cells per well) and Caco2 cells (4×10^4 cells per well) were incubated with different concentrations of the individual compound in 96-well plates for 48 hrs, followed by the addition of the substrate and measurement of luminance 10 min later. Ridaura and Au(PEt3)Cl were dissolved in DMSO, and the final percentage of DMSO was kept at 1% in culture medium.

[2] = biological target: T1, SARS-CoV-2 PL^pro (Severe acute respiratory syndrome coronavirus 2, UniProt P0DTD1); assay: Zinc release assay (FluoZin-3); type: binding
Method: The release of Zn^2+ from SARS-CoV-2 PL^pro upon bismuth drug exposure was perform by a previously described method with zinc-specific fluorophore FluoZin™-3 (Invitrogen/Life Technologies) (21). Briefly, SARS-CoV-2 PLpro (20 μM) was incubated with 0, 2, 5, 20 mol eq. Bi^3+ (as CBS), for 180 min at room temperature, followed by the addition of FluoZin-3 (1 μM) in a total reaction volume of 100 μL (50 mM Tris-HCl, pH7.4) at room temperature. Fluorescence (λex=494 nm, λem=530 nm) was detected and converted into Zn^2+ concentrations using standard curves prepared from […] under identical condition. The signals of CBS at corresponding concentrations after mixing with FluoZin™-3 were recorded for background subtraction. The assay was performed in triplicate and the results were plotted as the [Zn^2+]/[PL^pro] verse [Bi^3+]/[PL^pro].

[3] = biological target: T2, SARS-CoV-2 M^pro (Severe acute respiratory syndrome coronavirus 2, UniProt P0DTD1); assay: Bi^3+ binding to M^pro (UV-vis kinetics and titration)
[4] = biological target: T1, SARS-CoV-2 PL^pro; assay: Bi^3+ binding to PL^pro (UV-vis kinetics and titration)
[5] = biological target: T2, SARS-CoV-2 M^pro; assay: Ellman's assay of free cysteine; type: binding
Method: Amount of free cysteine was assayed spectrophotometrically with DTNB [5,5′-dithiobis-(2-nitrobenzoic acid)]according to a previously described method^(22). Briefly, SARS-CoV-2 M^pro (15 μM) was incubated with 0, 2, 5, 20 mol eq. […] Equal volume of DTNB (2 mM) was added to the reaction mix in a total reaction volume of 100 μL. After the incubation for 90 min, absorption of 412 nm which indicated the release of 5-thiobenzoate anion, was detected and converted into thiol concentrations using standard curves prepared with reduced glutathione (GSH) under identical condition. The assay was performed in triplicate and the results were plotted as the [free cysteine]/[M^pro] verse [Bi^3+]/[M^pro].

[6] = Chemical stability of bismuth drugs at different pH; conditions: data not shown; for effect of the thiol-containing drug on hydrolysis of CBS: acidic conditions
[7] = biological target: T1, SARS-CoV-2 PL^pro; assay: PL^pro activity inhibition assay (FRET); type: biochemical
[8] = system: SARS-CoV-2; assay: Viral load reduction assay in VeroE6 cells; type: cell-based
Method: Viral load reduction assay was performed on VeroE6 and Caco2 cells, as described previously with modifications^41. Supernatant samples from the infected cells (0.1 MOI) were harvested at 48 hours post-infection (hpi) for qRT-PCR analysis of virus replication. Briefly, 100 μL of viral supernatant were lyzed with 400 μL of AVL buffer and then extracted for total RNA with the QIAamp viral RNA mini kit (Qiagen, Hilden, Germany). Real-time one-step qRT-PCR was used for quantitation of SARS-CoV-2 viral load using the QuantiNova Probe RT-PCR kit (Qiagen) with a LightCycler 480 Real-Time PCR System (Roche) as previously described^15. Each […] mixture contained 10 μL of 2×QuantiNova Probe RT-PCR Master Mix, 1.2 μL of RNase-free water, 0.2 μL of QuantiNova Probe RT-Mix, 1.6 μL each of 10 μM forward and reverse primer, 0.4 μL of 10 μM probe, and 5 μL of extracted RNA as the template. Reactions were incubated at 45° C. for 10 min for reverse transcription, 95° C. for 5 min for denaturation, followed by 45 cycles of 95° C. for 5 s and 55° C. for 30 s. Signal detection and measurement were taken in each cycle after the annealing step. The cycling profile ended with a cooling step at 40° C. for 30 s. The primers and probe sequences are against the RNA-dependent RNA polymerase/Helicase (RdRP/Hel) gene region of SARS-Cov-2 previously described^42.
Cell culture supernatants were collected at 48 hour-post-infection (hpi) for viral RNA extraction and quantitative reverse transcription-polymerase chain reaction (qRT-PCR) as previously described with modifications(13, 14). The primers and probe sequences were against the RNA-dependent RNA polymerase/Helicase (RdRP/Hel) gene region of SARS-CoV-2: forward primer: 5′-[…]-3′ (SEQ ID NO:6); reverse primer: 5′-[…]-3′(SEQ ID NO:7); specific probe: 5′-[…]-IABkFQ-3′(SEQ ID NO:8). The viral load reduction assay experiments were performed in triplicate and repeated twice for confirmation.

[9] = system: SARS-CoV-2; type: cell-based; conditions: 24 h, 1000 µM
[10] = biological target: T2, SARS-CoV-2 M^pro; assay: biochemical; type: biochemical
[11] = system: SARS-CoV-2; assay: Golden Syrian hamster model, oral treatment (NAC studies); type: in vivo
[12] = system: Caco2 cells; assay: Cell viability assay (CellTiterGlo), Caco2; type: cell-based, human; conditions: Caco-2
Method: as §1

[13] = system: SARS-CoV-2; type: cell-based
[14] = system: SARS-CoV-2; conditions: 0.1 MOI, 48 hpi, non-toxic concentrations
[15] = system: SARS-CoV-2; type: cell-based; conditions: read-out: EC50 VeroE6
[16] = system: pseudo-SARS-CoV-2-Luc; type: cell-based
[17] = 48 hrs incubation, concentration based on metal content, read-out: CC50 VeroE6
[18] = 0.1 MOI, 48 hpi, non-toxic concentrations

CCP(CC)CC.[Au+].[Cl-] [Au(PEt3)Cl, chloro(triethylphosphine)gold(I)]
CC50 [1, 17]: 13.5 ± 1.8 µM

[Bi+3] [Bi^3+]
Zn^2+ released from PL^pro [2]: ~0.78 eq.
molar ratio [Bi3+]/[SARS-CoV-2 Mpro] at plateau ([3]; absorption at 340 nm): ~1
Kd ([3]; read-out: estimated dissociation constant (Kd), M^pro): 0.6 µM
molar ratio [Bi3+]/[SARS-CoV-2 PL^pro] at plateau ([4]; absorption at 340 nm): ~3
Kd ([4]; read-out: estimated dissociation constant (Kd), PL^pro): 1.13 µM
decrease of free cysteine in M^pro [5]: ~1 eq.

C[C@H](CS)C(=O)N1CCC[C@H]1C(=O)O [CPL, captopril]
effect of the thiol-containing drug on hydrolysis of CBS [6]: prevent hydrolysis of CBS

N[C@@H](CCC(=O)N[C@@H](CS)C(=O)NCC(=O)O)C(=O)O [GSH, glutathione]
effect of the thiol-containing drug on hydrolysis of CBS [6]: prevent hydrolysis of CBS

CC(=O)N[C@@H](CS)C(=O)O [NAC, N-acetyl cysteine]
IC50 [7]: > 150 µM
inhibition of PL^pro at comparable concentrations [7]: negligible inhibitory
anti-SARS-CoV-2 activity in Vero E6 culture supernatant ([8]; up to 2000 μM): negligible anti-SARS-CoV-2 activity
viral NP antigen-positive cells [9]: 59.75%
IC50 [10]: > 450 µM
inhibition of M^pro at comparable concentrations [10]: negligible inhibitory
lung pathology ([11]; H&E): partially relieved lung pathology
pulmonary viral load compared with vehicle group ([11]; oral CBS 300 mg/kg or NAC 370 mg/kg, 2 dpi): No statistically significant difference

CC(C)(S)[C@@H](N)C(=O)O [PCM, penicillamine]
effect of the thiol-containing drug on hydrolysis of CBS [6]: prevent hydrolysis of CBS

CC[PH](CC)(CC)[Au][S][C@@H]1O[C@H](COC(C)=O)[C@@H](OC(C)=O)[C@H](OC(C)=O)[C@H]1OC(C)=O [Ridaura, Auranofin]
CC50 [1, 17]: 14.2 ± 1.3 µM

O=C(O)c1ccccc1S [TSA, thiosalicylic acid]
effect of the thiol-containing drug on hydrolysis of CBS [6]: prevent hydrolysis of CBS

Bi(TPP) (TPP: tetraphenylporphyrinate)
CC50 [1]: > 400 µM
CC50 [12]: > 400 µM
maximal viral load reduction in VeroE6 cell culture supernatant [8, 18]: ~3 logs
maximal viral load reduction in the VeroE6 cell lysate [8, 18]: ~1 logs
effect on virus replication, drug maintained after virus entry (post-entry) ([13]; MOI=2, viral titer at 9 hpi): functioned at post-entry stages
maximal viral load reduction in Caco2 cell culture supernatant [14]: ~3 logs
maximal viral load reduction in the Caco2 cell lysate [14]: ~2 logs
EC50 ([15]; SARS-CoV-2 plaque reduction, concentration based on metal content): 3.9 ± 1.2 µM

Bi(TPyP) (TPyP: tetra(4-pyridyl)porphyrin)
maximal viral load reduction in VeroE6 cell culture supernatant [8]: ~3 logs
maximal viral load reduction in the VeroE6 cell lysate [8]: ~1 logs
effect on virus replication, drug added during pre-incubation (cells pre-treatment) [13]: significantly suppressed virus replication
effect on virus replication, drug added during virus co-infection [13]: significantly suppressed virus replication
effect on virus replication, drug maintained after virus entry (post-entry) [13]: no detectable effect
percent virus entry lowered [16]: ~53%
EC50 [15]: 7.5 µM

bismuth subgallate [BSG]
stabilisation of the bismuth drug by NAC ([6]; low pH): stabilized
